# Biological target: T1, GST-Bfl-1 (Homo sapiens, UniProt Q16548)
# T1 construct: lacking their C-terminal transmembrane domains (about the last 20 amino acids) (“ΔTM”); made in house; host or cells: XL-1 Blue E. coli, pGEX 4T-1
# T1 sequence (Q16548 1-155 limits assumed): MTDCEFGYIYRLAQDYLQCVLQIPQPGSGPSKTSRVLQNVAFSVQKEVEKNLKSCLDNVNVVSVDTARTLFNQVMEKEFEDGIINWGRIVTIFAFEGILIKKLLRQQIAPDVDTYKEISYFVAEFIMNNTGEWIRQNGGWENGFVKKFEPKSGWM
# Assay: Bfl-1/FITC-Bid BH3 competitive fluorescence polarization assay
# Assay type: binding
# Details: primary HTS hits, MLSCN library (PubChem SIDs), Table 5B
# Description: A FPA was performed to determine the binding affinity of FITC-Bid BH3 peptide to Bcl-2 proteins. […] IC50 determinations were performed using GraphPad Prism software (GraphPad, Inc., San Diego, Calif.). FPA competition assays were performed using the same procedure described above, except that 100 nM of GST-Bfl-1 protein in a volume of 45 μl was incubated with 5 μl (50 μM) test compounds in DMSO per well for 30 min prior to addition of 50 μl (5 nM) FITC-Bid BH3 peptide. The final DMSO concentration was 5% when the reactions brought to fall volume of 100 μl. Fluorescence polarization was measured after 10 min. Compounds that reduced the fluorescence polarization by 50% were considered hits.
SMILES,% Activity,FRatio
CC1=C(N2C(=O)c3ccc4c5c(ccc(c35)C2=O)CC4)C(C)N(c2ccccc2)N1C (stereo not drawn) [Compound 7978392],111.5%,0.39
Oc1ccc(-c2cn3c(n2)SCC3)cc1O [Compound 14746201],77.7%,0.91
c1nnnn1C12CC3CC(CC(C3)C1)C2 [Compound 14725293],60.7%,0.98
c1coc(C2Nc3cccc4cccc(c34)N2)c1 [Compound 844697],78.1%,1.08
CC1CCN(c2ccc(C(=O)O)cc2N)CC1 [Compound 852908],73.3%,0.75
COc1cc(CC(=O)OCC(=O)Nc2ncc(Cl)cc2Cl)cc(OC)c1OC [Compound 3714968],54%,1.42
c1cc2c3c(cccc3c1)NC1(CCCCC1)N2 [Compound 14724643],52.7%,0.82
O=C(Nc1ccc2nc(-c3ccco3)c(-c3ccco3)nc2c1)N1CCCCCC1 [Compound 4258795],83.2%,0.96
COC(=O)c1[nH]c2ccc(C)cc2c1NC(=O)CCN1CCN(Cc2ccc3c(c2)OCO3)CC1 [Compound 862218],69.7%,0.81
COc1ccc2c(c1)c(=O)oc1cc(OCC(=O)NC3CCCCC3)ccc12 [Compound 14730237],78.9%,0.91
CCOC(=O)C1=C(C)S/C(=C\N(C)C)C1=O [Compound 7972859],68.4%,0.91
CC(=N)/C(C#N)=C(\O)CSc1nc2ccccc2[nH]1 [Compound 17385704],105.8%,0.67
CCSc1nnc(NC(=O)c2cnccn2)s1 [Compound 7977261],58.3%,1.19
CN(C)c1ccc(NC(=O)CN2C(=O)CC(c3ccccc3)=Nc3ccccc32)cc1 [Compound 853473],62.6%,0.6
CN(C)c1cccc(C(=O)OCc2cc(=O)oc3cc(O)ccc23)c1 [Compound 17388495],71.7%,1
CCOc1cc(/C=C2\C(=O)N(c3nc(-c4ccc(Br)cc4)cs3)N=C2c2ccccc2)ccc1O [Compound 14733887],68.2%,0.76
O=C(NCc1ccco1)c1c2c(nc3ccccc13)CCC2 [Compound 3715091],62.4%,0.86
COC(=O)c1ccccc1NC(=O)c1noc2c1CCC2 [Compound 4245926],72.8%,0.46
CCn1c(SCC(=O)O)nc2sc3c(c2c1=O)CCC3 [Compound 856717],83%,0.85
Cc1cc(C)c(NC(=O)C2=CC3C(N=C4SC=CN43)S2)c(C)c1 (stereo not drawn) [Compound 3712588],66.1%,1.05
Cc1cc(C)nc(Nc2ccc(N3CCCC3)cc2)n1 [Compound 4256031],108.1%,0.2

SMILES,% Activity,FRatio
FC(F)(F)c1cnc(Nc2ccc(N3CCOCC3)cc2)c(Cl)c1 [Compound 3713921],51.4%,0.51
CCS(=O)(=O)N1Cc2ccccc2CC1C(=O)N1CCN(c2cccc(C)c2C)CC1 (stereo not drawn) [Compound 3712504],54.7%,0.25
Cc1ccc(C)n1-c1sccc1C(=O)O [Compound 14729511],80%,0.77
Cc1ccc2nc(O)c(C3C(C#N)=C(N)Oc4c3ccc3cccnc43)cc2c1 (stereo not drawn) [Compound 14720783],55%,0.84
Cc1nc2ccc(C(=O)O)cc2c2c1CC(C)S2 (stereo not drawn) [Compound 4259932],54.7%,0.6
Nc1nc(-c2ccco2)nn1C(=O)CCc1ccccc1 [Compound 4254649],63.2%,0.83
Cc1ccc2cccc(S(=O)(=O)Nc3ccc4c(c3)OCO4)c2n1 [Compound 4262919],80.6%,0.67
Cc1ccc(C)n1C(Cc1ccccc1)C(=O)O (stereo not drawn) [Compound 852148],82.9%,1.37
N/C(=N\N=C\c1ccc(-c2ccc(O)c(C(=O)O)c2)o1)N[N+](=O)[O-] [Compound 17416093],84.4%,0.7
O=C(COc1ccccc1C(=O)N/N=C/c1ccc(O)c(O)c1)N/N=C/c1ccc(O)c(O)c1 [Compound 17409262],70.9%,0.77
CC1(C)CCCN(C(=O)c2coc(=O)c(Br)c2)C1 [Compound 862800],80.8%,0.65
Cc1ccc(O)c(/N=C/C2=C(O)c3ccccc3C2=O)c1 [Compound 7974116],56%,0.92
C[C@@H](C(=O)Nc1nc(-c2ccccn2)cs1)N1C(=O)C2CCCCC2C1=O (stereo partly drawn) [Compound 16952892],51.1%,1.04
Cc1csc2nc(CNS(=O)(=O)N(C)C)cn12 [Compound 7970333],53.8%,0.96
O=C(COC(=O)Cc1ccccc1)Nc1ncc(Cl)cc1Cl [Compound 14744122],58.8%,1.03
COc1ccc(N2C(=O)c3cccc4cccc(c34)C2=O)nn1 [Compound 4265126],58.8%,0.88
O=C1c2ccccc2CC1Sc1nnc(-c2ccccn2)o1 (stereo not drawn) [Compound 842657],65.7%,1.17
Cc1ccc2c(c1)c(=O)c1c3n2CCN(C(=O)CCl)C3CC1 (stereo not drawn) [Compound 14742276],72.4%,0.88
Cc1nn2c(N)csc2nc1=O [Compound 846443],56.4%,1.35
Nc1ccc(N2CCN(C(=O)c3cccs3)CC2)cc1 [Compound 14726238],57.8%,0.87
CN(CC(=O)Nc1c(Cl)cccc1Cl)C(=O)CCCN1C(=O)c2ccccc2C1=O [Compound 17388283],57.1%,0.97

SMILES,% Activity,FRatio
COc1ccc(S(=O)(=O)N2Cc3ccccc3CC2C(=O)O)cc1 (stereo not drawn) [Compound 16953199],53%,0.85
Cc1ccc(C)n1Cc1ccc(C(=O)O)cc1 [Compound 858431],76.8%,0.63
O=[N+]([O-])c1cc(-c2ccc(/C=N/c3nc4ccccn4c3-c3ccco3)o2)ccc1Cl [Compound 17388349],60.5%,0.99
Cc1cc[n+]2c3c(cccc13)CCC2 [Compound 14748512],76.6%,0.76
COc1ccc(OC)c(N2C(=O)[C@@H]3C(c4ccccc4Cl)=NO[C@@H]3C2=O)c1 [Compound 864036],68.5%,0.89
CCN1CCN(c2ccc(NC(=O)c3cccc4ncccc34)cc2)CC1 [Compound 842582],76.3%,0.21
Cc1ccc(S(=O)(=O)N2CCCCC2)cc1C(=O)Nc1nc[nH]n1 [Compound 3716232],50.5%,0.86
O=C(C[n+]1ccc(C(=O)N/N=C/c2ccc(O)cc2)cc1)c1ccccc1 [Compound 14746260],57.9%,0.72
O=c1c2cc(N3CCOCC3)ccc2[nH]c(=S)n1CCCN1CCCCCC1 [Compound 4251175],62.3%,0.65
CCn1c(SC(C)C(=O)O)nc2sc3c(c2c1=O)CCC3 (stereo not drawn) [Compound 856662],95.1%,0.59
N#Cc1ccccc1CN1C(=O)S/C(=C/c2cccn2-c2ccc(C(=O)O)cc2)C1=O [Compound 17385953],63.5%,0.75
Cc1csc(N/N=C/c2ccc(O)c([N+](=O)[O-])c2)n1 [Compound 14746238],57.1%,0.84
N=c1c(C(=O)NCC2CCCO2)cc2c(=O)n3ccccc3nc2n1Cc1cccnc1 (stereo not drawn) [Compound 844196],63.4%,0.93
O=C(CSc1n[nH]c(-c2ccccc2)n1)c1ccc(O)c(O)c1 [Compound 851690],75.1%,0.43
CSc1nc2n(n1)C(c1ccccn1)C1=C(O)CC(C)(C)CC1=N2 (stereo not drawn) [Compound 14742716],61.8%,0.84
COC(=O)CNc1c(-c2ccccn2)nc2ccc(Br)cn12 [Compound 4251133],51.2%,1.16
COCCN1CCN2C(=NC3CC(NC(=O)NC4CCCCC4)CCC32)C1 (stereo not drawn) [Compound 865452],79.7%,0.73
CSc1nnc(-c2ccco2)c(-c2ccco2)n1 [Compound 859770],107%,0.53
COc1ccc(Nc2cc(C)nc3nc(C)nn23)cc1Cl [Compound 7967129],82.3%,1.11
Cc1ccc(S(=O)(=O)NC(=O)c2cc(C)n(CCCn3ccnc3)c2C)cc1 [Compound 3173759],61.5%,0.99
Cc1cccc(OCC(=O)Nc2ccc(N3CCCC3)cc2)c1C [Compound 7975075],76.1%,0.72

# Reference: patent publication US20090118135A1, “METHODS AND COMPOUNDS FOR REGULATING APOPTOSIS” (The Burnham Institute, priority 2007, published 2009)
